Data reported in patent US8846873B2, “Antibodies directed to GPNMB and uses thereof” (Celldex Therapeutics, Inc., priority 2004, dated 2014).

Legend:
[1] = system: U937 (histiocytic lymphoma, monocytic); assay: Clonogenic assay with 1.15.1-AE (methylcellulose); type: cell-based
Description: (§1) Lymphoma or leukemia cell lines were mixed with methylcellulose base media (R&D Systems, USA) and in various concentrations of unconjugated and Auristatin E-conjugated 1.15.1 antibody before plating onto 6-well tissue culture plates (Becton Dickinson, Franklin Lakes, N.J., USA). […] Plates were incubated at 37° C. and examined daily. On days 14-18, colonies on the plates were counted.

[2] = system: CCRF-CEM (acute T cell lymphoblastic leukemia); assay: Clonogenic assay with 1.15.1-AE (methylcellulose); type: cell-based
Description: as §1

SU-DHL-1 (ALCL) = assay: Clonogenic assay with 1.15.1-AE (methylcellulose); type: cell-based
Description: as §1

[3] = system: PL-21 (acute myeloid leukemia); assay: Clonogenic assay with 1.15.1-AE (methylcellulose); type: cell-based
Description: as §1

Karpas 299 (ALCL) = assay: Clonogenic assay with 1.15.1-AE (methylcellulose); type: cell-based
Description: as §1

[4] = system: Jurkat (acute T-cell leukemia); assay: Clonogenic assay with 1.15.1-AE (methylcellulose); type: cell-based
Description: as §1

[5] = system: THP-1 (acute monocytic leukemia); assay: Clonogenic assay with 1.15.1-AE (methylcellulose); type: cell-based
Description: as §1

[6] = system: MOLT-4 (acute T cell lymphoblastic leukemia); assay: Clonogenic assay with 1.15.1-AE (methylcellulose); type: cell-based
Description: as §1

[7] = system: SR (anaplastic large T cell lymphoma, ALCL); assay: Clonogenic assay with 1.15.1-AE (methylcellulose); type: cell-based
Description: as §1

SK-Mel-2 cells = assay: Apoptosis analysis (Annexin V-FITC / propidium iodide); type: cell-based, human; settings: for % AnnV+/PI+ UR / % AnnV+/PI− LR / % AnnV−/PI+ UL: SK-Mel-2, 48 hour
Description: (§2) Briefly, cells were pulsed at the indicated times with 30 μM of bromodeoxyuridine (BrdU, Sigma) for 30 min, harvested, fixed and permeabilized in methanol. Nascent DNA synthesis was detected by anti-bromodeoxyuridine-FITC (BD Biosciences, San Jose, Calif.) staining. Total DNA content was detected using propidium iodide (PI, Sigma). For apoptosis analysis, cells were treated as above and labeled with Annexin V-FITC followed by propidium iodide exclusion using the Annexin V-FITC Apoptosis Detection kit I (BD PharMingen, San Diego, Calif.) according to the manufacturer's protocols. Flow cytometry (as described in the previous Example) was used to assay both cell cycle and apoptosis studies.
(§3) To investigate this possibility, analysis of apoptosis using Annexin-V surface binding and loss of propidium iodide (PI) exclusion was performed.

TK-10 cells = assay: as above; type: cell-based, human; settings: TK-10, 48 hour
Description: as §2, §3

HEK293 cells = assay: Clonogenic assay, empty vector or GPNMB transfected cells; type: cell-based, human; settings: 96 hours treatment
Description: HEK293 cells are transfected with empty vector (vector) or GPNMB-containing plasmid (GPNMB) as described in Materials and Methods. A. Cell lysates are prepared from the transfected HEK293 cells and the expression of GPNMB (upper panel) or actin (lower panel) is determined by immunoblotting. Lane 1: Empty vector transfectants. Lane 2: GPNMB transfectants. B. Flow cytometry analysis of GPNMB expression on empty vector or GPNMB transfected cells. C. […] After a clonogenic assay, the surviving fraction is normalized to the untreated control and expressed as a percentage of the control using GraphPad Prism graphing software. Each treatment is performed in triplicate. A representative graph from two independent experiments is shown.
Cells were plated in 96-well plates and allowed to recover overnight. […] The cells were then transferred into 6-well plates and allowed to form colonies. Colonies were stained with Giemsa stain (Sigma) and counted. The surviving cell fractions were calculated based upon the ratio of the treated sample and the untreated control. The results were expressed as a percentage of control using GraphPad Prism Version 4 software.

## CR011-vcMMAE: anti-GPNMB antibody 1.15.1 coupled to monomethylauristatin E via protease-sensitive valine-citrulline linker
[1]
  Clonogenic Assay with 1.15.1-AE IC50: 0.34 µg/mL
  IC50: 2.4 nM
[2]
  Clonogenic Assay with 1.15.1-AE IC50: No growth
SU-DHL-1 (ALCL)
  Clonogenic Assay with 1.15.1-AE IC50: No effect
[3]
  Clonogenic Assay with 1.15.1-AE IC50: No effect
Karpas 299 (ALCL)
  Clonogenic Assay with 1.15.1-AE IC50: Inconclusive
[4]
  Clonogenic Assay with 1.15.1-AE IC50: No effect
[5]
  Clonogenic Assay with 1.15.1-AE IC50: 0.207 µg/mL
  IC50: 1.4 nM
[6]
  Clonogenic Assay with 1.15.1-AE IC50: No effect
[7]
  Clonogenic Assay with 1.15.1-AE IC50: 0.296 µg/mL
  IC50: 2 nM
SK-Mel-2 cells; 1000 ng/mL, 48 hr
  increase in mono-stained (Annexin-V+/PI−) cells: 11%
SK-Mel-2 cells; 100 ng/mL
  % AnnV+/PI+ UR: 0.40%
  % AnnV+/PI− LR: 9.37%
  % AnnV−/PI+ UL: 0.30%
SK-Mel-2 cells; 1000 ng/mL
  % AnnV+/PI+ UR: 2.02%
  % AnnV+/PI− LR: 13.83%
  % AnnV−/PI+ UL: 2.08%
TK-10 cells; 100 ng/mL
  % AnnV+/PI+ UR: 0.57%
  % AnnV+/PI− LR: 1.00%
  % AnnV−/PI+ UL: 0.71%
TK-10 cells; 1000 ng/mL
  % AnnV+/PI+ UR: 0.83%
  % AnnV+/PI− LR: 0.56%
  % AnnV−/PI+ UL: 0.86%
HEK293 cells
  sensitivity to growth-inhibition, GPNMB-expressing vs control HEK293 cells: more sensitive
